From patent US10774047B2 (THE TRUSTEES OF THE UNIVERSITY OF PENNSYLVANIA, priority 2015, dated 2020)
Entries after “also recorded” stand apart in the source; their conditions may differ.

Key:
[1] = test system: A375P cells; test: Galectin-3 punctae assay (lysosomal membrane permeabilization); type: cell-based; conditions: 6 hours (LLOMe 3 hr, 2 mM)
Experimental: FIG. 3: Central nitrogen methylation status dictates DNA damage versus lysosomal membrane permeability. […] Cells were imaged with fluorescent microscopy, phospho-H2AX+ cells were scored using ImageJ software analysis and quantified to the right. (B) A375P cells were treated identical to the conditions in (A), with the addition of the positive control LLoMe (3 hr, 2 mM). Cells were subsequently stained with galectin-3 and imaged with fluorescent microscopy. The formation of galectin-3 punctae, which signify lysosomal membrane permeabilization, are pointed out with yellow arrows.
When lysosomes are healthy, galectin-3 is uniformly dispersed throughout the cell. However, when the lysosome is damaged, galectin-3 rapidly localizes to the site of damaged lysosomes, appearing as punctae and marking individual leaky lysosomes.

[2] = test system: mTORC1; test: Immunoblot of mTORC1 signaling and LC3B, panel of lysosomal inhibitors; conditions: A375P cells
[3] = test system: 451Lu (melanoma) cells; test: Bafilomycin clamp experiment (autophagic flux); type: cell-based; conditions: 3 μM, with or without bafilomycin-A1, 24 hours
[4] = test system: 1205Lu melanoma xenografts; test: 1205Lu melanoma xenograft model; type: in vivo, NSG mice
Experimental: (§1) FIG. 5: DQ661 has significant single-agent in vivo activity in melanoma xenograft model. […]. Mice were randomly split into 4 arms and treated with vehicle control (water, i.p.), quinacrine (8 mg/kg, i.p.), DQ660 (8 mg/kg, i.p.) or DQ661 (8 mg/kg, i.p.). Treatments were given as shown by the black arrows, following a regimen of 2 days on treatment followed by 2 days off treatment. (C) Representative electron micrographs from melanoma xenograft tumors harvested after 2 days of treatment according to (B). (D) Average tumor volumes for each treatment arm are shown. Each point represents the mean of N=8 mice per treatment arm and the error bars represent standard error (s.e.) (C) Representative EM for tumors treated in each arm. (E) A schematic for how mice were treated in (F). […]. Mice were randomly split into 3 arms and treated with water (i.p.), DQ661 (2 mg/kg, i.p.) or DQ661 (4 mg/kg, i.p.). Treatments were give as shown by the black arrows, following a regimen of 2 days on treatment followed by 2 days […]. Tumor volume is shown. Each point represents the mean of N=8 mice per treatment arm and the error bars represent s.e. (G) Average tumor growth rate for each treatment arm are shown. (H) Protein lysate was harvested from mouse tumors at the end of the experiment and immunoblotted for LC3B, phospho-4E-BP1 T37_T65, phospho-4E-BP1 S240_S244 and Actin. Quantification of proteins standardized to control mice levels are shown to the right.
(§2) Five to seven-week old NOD-scid gamma (NSG) mice (Jackson Laboratory) were used for xenograft studies with the 1205Lu melanoma cell line. Tumor generation, tumor measurement and tumor harvesting performed as previously described (ref). For the pancreatic cancer model, five to seven-week old C57BL/6 mice (Jackson Laboratory) and maintained under pathogen-free conditions. 2×10^6 G43 cells were subcutaneously injected with an equal volume of matrigel (BD) over the right flank […] and tumors became palpable after 5-6 days. Mice were enrolled on day 6 and given Gemcitabine (120 mg/kg, i.p.). DQ661 (4 mg/kg, i.p.) was given on days 7, 8, 12, 13, 17 and 18. Perpendicular tumor diameters were measured sing electronic calipers and volume was calculated leveraging the formula L×W^2×0.5, where L is the longest dimension and W is the perpendicular dimension. All animal experiments were performed in accordance to the protocols approved by the Institute of Animal Care and Use Committee of the University of Pennsylvania.
. After 1-2 weeks, tumors were palpable and mice were treated with vehicle control (water), quinacrine (8 mg/kg), DQ660 (8 mg/kg) or DQ661 (8 mg/kg) i.p (FIG. 5A). […]. Therefore another 1205Lu xenograft experiment was performed with mice treated with either vehicle control (water, n=6) or DQ661 (2 or 4 mg/kg, n=6) for a period of 14 days (FIG. 5e, 5F).

[5] = test system: G43 cells; test: G43 KPC pancreatic cancer syngeneic model; type: in vivo, C57BL/6 mice; conditions: gemcitabine 120 mg/kg i.p. once; DQ661 4 mg/kg i.p. 2 days on 3 days off
Experimental: FIG. 6: DQ661 potentiates in vivo activity of gemcitabine in KPC pancreatic cancer syngeneic model. (A) 4664 and G43 cells were treated with gemcitabine (72 hr, 3-30 nM). MTT was subsequently added and cell viability was determined by standardizing absorbance to control wells. (B) G43 cells were treated chronically for 2 weeks with gemcitabine (3-30 nM) in the presence or absence of DQ661 (30-300 nM) in colony formation assays. Cells were subsequently stained with crystal violet and imaged. (C) A schematic for how mice were treated in (D). G43 cells were injected into C57BL/6 mice (2×10^6 cells/mouse. Once palpable, mice were treated with vehicle (water, PBS), gemcitabine (120 mg/kg, i.p., once at day 6), DQ661 (4 mg/kg, i.p., starting on day 7 according to the regimen of 2 days on treatment followed by 3 days off treatment) or a combination of gemcitabine and DQ661. (D) Average tumor volumes for each treatment arm are shown. Each point represents the mean of N=8 mice per treatment arm and the error bars represent s.e. (E) Tumor growth rate from (D).
Five to seven-week old NOD-scid gamma (NSG) mice (Jackson Laboratory) were used for xenograft studies with the 1205Lu melanoma cell line. […] Perpendicular tumor diameters were measured sing electronic calipers and volume was calculated leveraging the formula L×W^2×0.5, where L is the longest dimension and W is the perpendicular dimension. […]

[6] = test system: mTORC1; test: mTOR / LAMP2 co-localization imaging; conditions: A375P cells, 6 hours, 3 μM
[7] = test system: ATG5 WT and ATG5-null MEFs; test: Long-term colony formation in ATG5+/+ and ATG5-/- MEFs; type: cell-based; conditions: 2 weeks, 10-300 nM
Experimental: (G) Long-term colony formation assays were performed with ATG5+/+ and ATG5−/− MEFs treated with DQ661 (2 weeks, 10-300 nM). Cells were subsequently stained with crystal violet and imaged.
The clonogenic assay was performed as previously described. Briefly, cells were suspended in appropriate culture media, and plated in 6-well plates (2×10^3 cells/well). Medium was changed and drug treatment refreshed every 3-4 days for 2 weeks. Cells were subsequently stained with crystal violet and quantified.

[8] = Tolerability in 1205Lu xenograft-bearing mice; type: in vivo
Experimental: as §1, §2
. After 1-2 weeks, tumors were palpable and mice were treated with vehicle control (water), quinacrine (8 mg/kg), DQ660 (8 mg/kg) or DQ661 (8 mg/kg) i.p (FIG. 5A). […]. […]

[9] = test system: autophagy; conditions: background; cited from earlier work
[10] = test system: G43 cells; test: MTT viability of 4664 and G43 KPC pancreatic cancer cells; type: cell-based, mouse; conditions: 72 hr
Experimental: FIG. 6: DQ661 potentiates in vivo activity of gemcitabine in KPC pancreatic cancer syngeneic model. (A) 4664 and G43 cells were treated with gemcitabine (72 hr, 3-30 nM). MTT was subsequently added and cell viability was determined by standardizing absorbance to control wells. (B) G43 cells were treated chronically for 2 weeks with gemcitabine (3-30 nM) in the presence or absence of DQ661 (30-300 nM) in colony formation assays. Cells were subsequently stained with crystal violet and imaged. (C) A schematic for how mice were treated in (D). […]
For MTT assays, cells were plated in 96-well plates (2,000 cells/well), allowed to adhere overnight, and subsequently treated in triplicate for 72 hours. MTT reagent (Roche) was applied, cells were solubilized and absorbance was read at 570 nm, with background subtraction at 690 nm. […] Cells were subsequently stained with crystal violet and quantified. […]

Row | Structure (SMILES) | galectin-3 staining pattern [1] | autophagy inhibition (accumulation of LC3II/LC3I levels) among lysosomal inhibitors ([2]; 3 μM) | S6K (and 4E-BP1) phosphorylation ([2]; DQ661 3 μM, PET 10 μM, Bafilomycin A1 100 nM) | mTORC1 activity (Western blotting) ([2]; DQ661 3 μM, Pepstatin A 10 μG/mL, Siramesine 8 μM) | effect on autophagic flux (LC3II/LC3I ratio with vs without bafilomycin-A1) [3] | tumor growth ([4]; 8 mg/kg i.p., 2 days on / 2 days off) | autophagy in tumors (electron microscopy) ([4]; 8 mg/kg i.p., tumors harvested after 2 days of treatment) | tumor growth rate ([4]; 2 or 4 mg/kg i.p., 14 days) | tumor volume and tumor weight ([4]; 2 or 4 mg/kg i.p., 14 days) | Western blotting of tumor lysate (LC3, p62, phospho-4EBP1, phospho-S6) ([4]; 2 or 4 mg/kg i.p., end of experiment) | tumor growth [5] | mTOR and lysosomal (LAMP2) co-localization [6] | cytotoxicity in ATG5 WT vs ATG5-null MEFs [7] | clinical outcome by day 7 ([8]; 8 mg/kg i.p.) | histological analysis of the intestines and liver ([8]; 8 mg/kg i.p.) | weight loss of mice ([8]; 8 mg/kg i.p.) | mice weight ([8]; 2 or 4 mg/kg i.p., 14 days) | concentrations required to inhibit autophagy [9] | sensitivity of G43 cells relative to parental 4664 cells [10]
1 | COc1ccc2nc3cc(Cl)ccc3c(NCCCCCCN(C)CCCCCCNc3c4ccc(Cl)cc4nc4ccc(OC)cc34)c2c1 [DQ 661] | punctate distribution of galectin-3 | greatest ability to inhibit autophagy among the entire panel of lysosomal inhibitors | inhibit S6K and 4E-BP1 to a similar degree as the classical control of amino acid starvation | potently inhibits mTORC1 activity | autophagy inhibitors | inhibited tumor growth to the greatest extent | inhibited autophagy as seen by electron microscopy of mouse tumors | significantly slower rates of growth | significant reduction in tumor volume and tumor weight compared to control mice | concurrent in vivo autophagy inhibition and mTORC1 inhibition | significantly impaired | loss of mTOR and lysosomal co-localization | equal cytotoxicity in ATG5 WT and ATG5-null MEFs; also recorded: equivalent activity | all mice were euthanized due to lethargy and bowel distension | Paneth cell dysfunction | greater than 10% | without significantly effect mice weight |  | 
2 | CCN(CCO)CCCC(C)Nc1ccnc2cc(Cl)ccc12 (centres unmarked) [HCQ, hydroxychloroquine] |  |  |  |  |  |  |  |  |  |  |  |  |  |  |  |  |  | High micromolar concentrations | 
3 | Nc1ccn([C@@H]2O[C@H](CO)[C@@H](O)C2(F)F)c(=O)n1 [gemcitabine, reference compound] |  |  |  |  |  |  |  |  |  |  | significantly impaired |  |  |  |  |  |  |  | resistant to gemcitabine, relative to the parental treatment naïve 4664 cells
